In a compilation of properties of binary mixtures (doi:10.1016/j.jct.2017.12.009):

Test: xn = mol fraction of the nth substance listed
Details: 101 kPa

CCCC[N+]1(C)CCCC1.O=S(=O)([O-])C(F)(F)F + CO
speed of sound [m/s]
Details	278.15 K	288.15 K	298.15 K	308.15 K	318.15 K
x1 = 0.0501	1228	1198	1168	1138	1110
x1 = 0.1004	1274	–	–	1190	1163
x1 = 0.1503	1311	–	1257	1231	1205
x1 = 0.2002	–	1316	–	1264	1239
x1 = 0.3002	1389	1363	1338	1313	1289
x1 = 0.3996	1421	1396	1371	–	1324
x1 = 0.4998	1445	1420	1396	1372	1349
x1 = 0.6006	1463	1439	1415	–	1368
x1 = 0.7015	1478	1453	1429	1406	1383
x1 = 0.8013	1490	1465	–	1418	–
x1 = 0.8427	1495	1470	1446	1423	1400
x1 = 0.9008	1501	1476	1452	1429	1406
x1 = 0.9514	–	1480	1456	1433	1411
x1 = 1	1513	–	1461	1438	1415

CO + CCCC[N+]1(C)CCCC1.O=S(=O)([O-])C(F)(F)F
x2 = 0
Details	speed of sound [m/s]
278.15 K	1169
288.15 K	1135
